Experimental data reported in patent publication US7148204B2, “Antisense modulation of bcl-x expression” (Isis Pharmaceuticala, Inc., priority 1998, dated 2006).
In the oligonucleotide strings, read from the 5' end, every base follows the letter of its sugar. An asterisk marks phosphorothioate; unmarked linkages are phosphodiester. Other units and linkages are bracketed, terminal groups are in braces. A string of capitals states the bases alone. e = 2'-O-(2-methoxyethyl) (MOE); [5mC] = 5-methylcytosine; d = 2'-deoxy (DNA)

Columns and labels:
[1] = system: bcl-xl protein; assay: Immunoblot of bcl-xl protein in CEM cells; format: cell-based, human
Method: Postnuclear detergent lysates were prepared as described by Reed et al. (Cancer Res., 1991, 51, 6529–6538), and the protein concentration was determined using a Bradford method protein assay kit (Bio-Rad, Hercules, Calif.). Protein (20 μg) was loaded in each lane, followed by electrophoresis on a 12% sodium dodecyl sulfate-polyacrylamide gel, followed by immunoblotting (Winston et al., 1993). The primary antibody was a 0.4 μg/ml dilution of the mouse monoclonal anti-human bcl-2 (clone 124, Dako, Carpinteria, Calif.), a 4.0 μg/ml dilution of the rabbit polyclonal anti-human bcl-xs/l (Dako), or a 0.3 μg/ml dilution of rabbit polyclonal anti-human Bax (N-20, Santa Cruz Biotechnology, Santa Cruz, Calif.). For development and STORM fluorescent imaging, the secondary antibody was peroxidase-conjugated sheep anti-mouse or donkey anti-rabbit (Amersham, Little Chalfort, UK). Chemiluminescence imaging and quantification were preformed using the STORM instrument and ImageQuant software (Molecular Dynamics, Sunnyvale, Calif.).

[2] = system: CEM-C7 cells; assay: Viable cell counts of CEM cells (propidium iodide exclusion, flow cytometry); format: cell-based, human; details: CEM cells; for viability by propidium iodide exclusion: 20 μM electroporation
Method: CEM-C7 cells (Norman et al., 1978), a glucocortocoid sensitive clone of the human T-lymphoblastic cell line CEM, were cultured between 5×10^4 to 10^6 cells/ml in RPMI 1640 medium containing 10% heat-inactivated fetal bovine serum (FBS), streptomycin, penicillin G, 15 mM HEPES, 2 mM sodium pyruvate, at 37° C. in a humid, 5% CO2 incubator. Viable cell counts were performed by propidium iodide staining and flow cytometry.
CEM-C7 cells were electroporated with the indicated concentrations of oligonucleotides at 150 volts, 1,700 microFaraday (μF), and a resistance setting of 5 with a BTX electroporation apparatus (Genetronics, San Diego, Calif.) in 2-mm gap cuvettes containing 5×10^6 cells in 200 μl RPMI plus 20% FBS on ice. Cells were left on ice for 10 minutes, then plated in 5 ml complete media.

[3] = system: total bcl-x mRNA; assay: RNase protection assay, total bcl-x mRNA in A549 cells; format: cell-based, human; set-up: % CONTROL total bcl-x: concentration or dose not given beside the values; details: RPA
Source text: (§1) The ribonuclease (RNase) protection assay is a sensitive and specific method for quantitating expression levels (Zinn, et al., Cell, 1983, 34:865–79). The method is based on the hybridization of a target RNA to an in vitro transcribed ^32P-labeled anti-sense RNA probe from a DNA template. RNase treatment follows, resulting in degradation of single-stranded RNA and excess probe. The probe and target RNA are resolved by denaturing polyacrylamide gel electrophoresis with the “protected” probe visualized using autoradiography or beta imaging equipment. Template sets can be purchased (PharMingen Inc., San Diego Calif.) which contain a series of biologically relevant templates, each of distinct length and each representing a sequence in a distinct mRNA species. Each template set is capable of detecting up to 11 unique gene messages in a single reaction mix in addition to one or more housekeeping genes, L32 and GAPDH, which serve as internal controls. These template sets allow for multiple determinations to be made from a single sample. Multi-probe RPA can be performed on total RNA preparations derived by standard methods, without further purification of poly-A+ RNA.
(§2) Oligonucleotides were evaluated for their respective effects on bcl-xs and bcl-xl mRNA levels along with total bcl-x mRNA levels, using the RIBOQUANT™ RNase protection kit (Pharmingen, San Diego Calif.). All assays were performed according to manufacturer's protocols. Briefly, multi-probe DNA template sets were used to generate antisense RNA transcripts radiolabeled with […]. The template set used for apoptosis genes was the human hAPO-2 set. These radiolabeled probes were hybridized overnight with typically 10 μg of total cellular RNA. The reaction mixture was then digested with single-strand RNases to generate the protected fragments which were electrophoresed through a 5% acrylamide/urea gel. Protected bands were visualized and quantitated using a PhosphorImager (Molecular Dynamics, Sunnyvale Calif.).
(§3) Human bcl-x has two forms, a long form known as bcl-xl and a short form known as bcl-xs. […] The protein of bcl-xl is similar in size and structure to bcl-2, and could inhibit cell death upon growth factor withdrawal. The protein of bcl-xs is 63 amino acids shorter than bcl-xl. It could inhibit the bcl-2 function, thus promoting programmed cell death (apoptosis). Oligonucleotides were evaluated for their respective effects on bcl-xs and bcl-xl mRNA levels along with total bcl-x mRNA levels, using the RIBOQUANT™ RNase protection kit (Pharmingen, San Diego Calif.). All assays were performed according to manufacturer's protocols.

[4] = system: bcl-xs/bcl-xl mRNA ratio; assay: RNase protection assay, bcl-xs/bcl-xl mRNA ratio in A549 cells; format: cell-based, human; details: A549 cells, RPA; for bcl-xs/bcl-xl (%): no oligo 17.56; for bcl-xs/bcl-xl* (change from the control ratio 17.56): no oligo = 1
Source text: as §1, §2, §3
(§4) These oligonucleotides were tested for their inhibitory effects on bcl-xl and bcl-xs mRNA levels in A549 cells, as detected by RPA analysis. Oligonucleotide concentration was 200 nM.

[5] = system: bcl-xs mRNA; assay: RNase protection assay, bcl-xs mRNA in A549 cells; format: cell-based, human; set-up: concentration or dose not given beside the values; details: RPA
Source text: as §1, §2, §3

[6] = system: human bcl-x mRNA; assay: Northern blot analysis of bcl-x mRNA levels in A549 cells; format: cell-based; details: 200 nM chimeric oligonucleotide
Method: Eighteen hours after antisense treatment, cell monolayers were washed twice with cold PBS and lysed in 1 mL RNAZOL™ (TEL-TEST “B” Inc., Friendswood, Tex.). Total RNA was prepared following manufacturer's recommended protocols. Twenty micrograms of total RNA was fractionated by electrophoresis through 1.2% agarose gels containing 1.1% formaldehyde using a MOPS buffer system (AMRESCO, Inc. Solon, Ohio). RNA was transferred from the gel to HYBOND™-N+ nylon membranes (Amersham Pharmacia Biotech, Piscataway, N.J.) by overnight capillary transfer using a Northern/Southern Transfer buffer system (TEL-TEST “B” Inc., Friendswood, Tex.). RNA transfer was confirmed by UV visualization. Membranes were fixed by UV cross-linking using a STRATALINKER™ UV Crosslinker 2400 (Stratagene, Inc, La Jolla, Calif.).
Membranes were probed using QUICKHYB™ hybridization solution (Stratagene, La Jolla, Calif.) using manufacturer's recommendations for stringent conditions with an 822-base pair bcl-x specific probe prepared by PCR from bases 33–855 of human bcl-xl sequence (Boise et al., 1993, Cell 74:597–608; GenBank accession no. L20121). To normalize for variations in loading and transfer efficiency membranes were stripped and probed for glyceraldehyde-3-phosphate dehydrogenase (GAPDH) RNA (Clontech, Palo Alto, Calif.). Hybridized membranes were visualized and quantitated using a PHOSPHORIMAGER™ and IMAGEQUANT™ Software V3.3 (Molecular Dynamics, Sunnyvale, Calif.). Data was normalized to GAPDH levels in untreated controls.
Oligonucleotides were tested by Northern blot analysis as described in Example 14. Oligonucleotides were tested in A549 cells at a concentration of 400 nM. The results are Table 2:
Oligonucleotides were tested by Northern blot analysis as described in Example 14. Chimeric oligonucleotides were in A549 cells at a concentration of 200 nM. Where present, “N.D.” indicates “not determined”.

[7] = system: bcl-xl mRNA; assay: RNase protection assay, bcl-xl mRNA in A549 cells; format: cell-based, human; details: RPA
Source text: as §1, §2, §3, §4

[8] = system: HUVEC; assay: Apoptosis of HUVEC (hypodiploid cells by flow cytometry); format: cell-based, human; details: for increase in cellular DNA fragmentation over background: agent alone at low dose: staurosporine 2 nM, C6-ceramide 5 μM
Method: Human umbilical vein endothelial cells (HUVEC) were obtained from Clonetics (San Diego Calif.) and cultivated in endothelial growth medium (EGM) supplemented with 10% fetal bovine serum. Cells were used between passages 2 and 5 and were used at approximately 80% confluency. Cells were washed three times with pre-warmed (37° C.) Opti-MEM™. Oligonucleotides were premixed with 10 μg/ml Lipofectin™ in Opto-MEM™ at an oligonucleotide concentration of 50 nM ISIS 16009. Cells were incubated with oligonucleotide for 4 hours at 37° C. after which the medium was removed and replaced with standard growth medium. Treatment with C6-ceramide (Calbiochem, San Diego Calif.), staurosporine (Calbiochem), or z-VAD.fmk (Calbiochem), if any, was done 24 hours after oligonucleotide treatment. […] Apoptotic cells with fragmented DNA were identified by flow cytometry analysis of hypodiploid cells.

Compound | % CONTROL total bcl-x [3] [%] | bcl-xs/bcl-xl (%) [4] [%] | bcl-xs/bcl-xl* (change from the control ratio 17.56) [4] | % CONTROL bcl-xs [5] [%] | % CONTROL bcl-xl [7] [%] | further results
5′-TCACATTGGCGCTTAGCCGT-3′ (chemistry not given here) [ISIS 16971, reference compound] | – | – | – | – | – | level of bcl-xl protein [1]: no effect; viability by propidium iodide exclusion ([2]; 48 hours): 70%; viability by propidium iodide exclusion ([2]; 72 hours): 82%; viable cell count at the highest concentration ([2]; 20 hours after electroporation): started to decrease
16012 (antisense e[5mC]*e[5mC]*eA*eG*e[5mC]*dC*dG*dC*dC*dG*dT*dT*dC*dT*dC*e[5mC]*eT*eG*eG*eA) [compound 16012] | 61 | 13.17 | 0.75 | 48 | 63 | % CONTROL (bcl-x mRNA levels) [6]: 30%; % INHIB (bcl-x mRNA levels) [6]: 70%
16013 (antisense eT*eA*eG*eA*eG*dT*dT*dC*dC*dA*dC*dA*dA*dA*dA*eG*eT*eA*eT*e[5mC]) [compound 16013] | 82 | 12.46 | 0.71 | 60 | 83 | % CONTROL (bcl-x mRNA levels) [6]: 85%; % INHIB (bcl-x mRNA levels) [6]: 15%
23174 (antisense e[5mC]*e[5mC]*eG*eG*e[5mC]*e[5mC]*eA*e[5mC]*eA*eG*eT*e[5mC]*eA*eT*eG*e[5mC]*e[5mC]*e[5mC]*eG*eT) [compound 23174] | 66 | 14.93 | 0.85 | 56 | 67 | –
23175 (antisense eT*eG*eT*eA*eG*e[5mC]*e[5mC]*e[5mC]*eA*eG*e[5mC]*eA*eG*eA*eA*e[5mC]*e[5mC]*eA*e[5mC]*eG) [compound 23175] | 78 | 11.44 | 0.65 | 52 | 82 | –
CCCCCCCCCCCCC/C=C/[C@@H](O)[C@H](CO)NC(=O)CCCCC [C6-ceramide] | – | – | – | – | – | increase in cellular DNA fragmentation over background [8]: did not cause a significant increase
CN[C@@H]1C[C@H]2O[C@@](C)([C@@H]1OC)n1c3ccccc3c3c4c(c5c6ccccc6n2c5c31)C(=O)NC4 [staurosporine] | – | – | – | – | – | increase in cellular DNA fragmentation over background [8]: did not cause a significant increase
COC(=O)CC[C@H](NC(=O)[C@H](CC(=O)OC)NC(=O)OCc1ccccc1)C(=O)N[C@H](C(=O)N[C@@H](CC(=O)OC)C(=O)CF)C(C)C [z-DEVD.fmk] | – | – | – | – | – | apoptosis caused by bcl-x inhibition, or bcl-x plus staurosporine or ceramide ([8]; caspase inhibitor treatment): prevented
